The text below walks through data of patent US11174177B2, “Systems and methods for controlling aquatic pests with sulfurous acid” (priority 2017, dated 2021).

One data set relates to clams. As to conditions: sulfuric acid and low pH, previously found; cited from earlier work.
The subject of another data set is zebra mussels. Nature of the data set: Open-water pond treatment, mortality of zebra mussels. The data set is classed as in vivo. The protocol: (§1) Applicant have performed studies and determined that the present water treatment methods with sulfurous acid provide about 100% kill of bryozoa in 48 hours, 100% kill of zebra mussels in 5 days, and 100% kill of Asiatic clams in less than one month. In these studies, the protocols introduced sulfurous acid into open water to achieve water pH levels between 6.0 and 6.5 in the treatment water within a control distance from the location of introduction. Accordingly, these pH ranges are sufficient to control these aquatic species. This allows these relatively higher pH ranges to control the aquatic species without compromising the body of water. The cyanobacteria can have a 100% kill from the sulfurous acid with a pH of the treated water between 6-7, or more preferably between 6.8-7.
(§2) In view of the disclosure provided herein, it is now possible to achieve about 100% kill rates on these aquatic pest species in any size body of water at ambient temperature and pressure. The water treatment is performed through the addition of sufficient sulfurous acid (as well as any sulfites and bisulfites in the sulfurous acid) so as to reduce pH between about 6.0-about 6.5 over hours to days to weeks. […] The mortality of each aquatic pest was measured progressively over time until all the aquatic pests in the pond were determined to be dead or at a level so low as to be unmeasurable.

Another data set deals with cyanobacteria. Nature of the data set: Treatment of Daybreak reservoirs infested with cyanobacteria. The format is in vivo. The text has this: (§3) As a control, Jordan Canal water, which was infected with cyanobacteria from Utah Lake, is directed to Daybreak and other areas. While treatment controlled cyanobacteria in Daybreak reservoirs, other areas that receive water from the Jordan Canal were still testing positive for cyanobacteria. As such, the treatment of sulfurous acid controlled the cyanobacteria in view of water ways further away (e.g., Blackridge Reservoir, Jordan River Narrows, and Wheeler Farm East Canal) still containing cyanobacteria. […] Since cyanobacteria are harmful to fish, the sulfurous acid actually improves the health of fish in the treated water.

The subject of the next data set is fish or other animals. The format is in vivo. Conditions: Daybreak reservoirs, pH maintained between 6.8-7.
Description: as §3

The test system of the next data set is Asiatic clams. Nature of the data set: Open-water pond treatment, mortality of Asiatic clams. The data set is classed as in vivo. The protocol: as §1, §2
Another data set relates to bryozoa. Briefly: Open-water pond treatment, mortality of bryozoa. The data set is classed as in vivo. As to the method:
as §1, §2

A further data set deals with algae. Nature of the data set: Removal of algae from treated water. The format is in vivo. Conditions: pH 6.5. The text has this:
In one example, pH 6.5 removed algae in 15 days.

The test system of a further data set is aquatic pests. Briefly: Water treatment, control of aquatic pests in general. The format is in vivo. The text has this: Thus, sulfurous acid can be used to treat water to control existing aquatic pest as well as condition the water to inhibit spreading of any aquatic pests introduced therein. This can inhibit spreading from a first body of water to a second body of water, such as from a pond to a stream or from a stream into a pond. While providing the sulfurous acid prohibits or prevents aquatic pest infestations or can be used as a prophylactic against aquatic pest infestations, application to the water can be done for the desire to control any aquatic pest in the water or soil in contact with the water (e.g., river bed, pond bed, shore, or other soil in direct contact with the water), or that may come into contact therewith. Also, the sulfurous acid can treat the surfaces of any water system or any surface of any object in the water to inhibit aquatic pest from attaching thereto, remove the aquatic pests from the surface (e.g., descale) or otherwise inhibit the aquatic pest from contaminating the water system. Thus, it may be desirable to apply the sulfurous acid to a water or soil contacting the water or structure confining the water as desired.
Thus, exhaust products from burning sulfur and reaction products of the exhaust products (e.g., reaction products from reacting sulfur dioxide with water or reacting other sulfur-containing substance in the exhaust with water) and water can be used to control the aquatic pets. In one aspect, sulfuric acid is specifically not used in the methods described herein.
Thus, introducing the exhaust products from burning sulfur that has sulfur dioxide (e.g., exhaust directly from a sulfur burn chamber) and reaction products of the exhaust products and water may reduce the calcium in the water in order to control the pests. This may include reducing the overall free calcium level, such as reducing carbonate and bicarbonate levels. In one aspect, the ability of sulfurous acid to degrade carbonates and bicarbonates may contribute to the ability of the present technology controlling pests. […] As referred to herein, the exhaust products include sulfur dioxide and possibly other sulfur-containing substances that are obtained directly from a sulfur burner that burns elemental sulfur.
Treatment can provide clarified water from murky water having one or more of these aquatic pests.

A further data set relates to anatoxin-a. Nature of the data set: Cyanotoxin in treated Daybreak reservoirs. Conditions: Daybreak reservoirs (surge pond), pH maintained between 6.8-7. The arrangement: species or system cyanobacteria.
Description: as §3

Where [1] appears, read: inoculated aquatic pond, pH about 6.0-about 6.5, no time stated.

For `O=S(=O)(O)O` [sulfuric acid], the kill of clams result in the data set on clams is given as “kill the clams, but only in some cases”.
As to sulfurous acid, the “kill of zebra mussels” value in the data set on zebra mussels (in 5 days, open water, pH between 6.0 and 6.5) is listed as 100%; in the data set with zebra mussels (setting [1]), “about 100%”. The “time until free of cyanobacteria” value with cyanobacteria (Daybreak reservoirs (surge pond), pH maintained between 6.8-7) is reported as no more than 2 weeks. Besides, in the data set with cyanobacteria (Daybreak reservoirs, untreated Jordan Canal areas still positive), the “detection of cyanobacteria after treatment” value is “non-detect”. Besides, the “cyanobacteria in waterways downstream from the Daybreak reservoirs” value in the data set on cyanobacteria (downstream of treated reservoirs) was “free of cyanobacteria”. The kill of cyanobacteria in the data set on cyanobacteria (pH of the treated water between 6-7, more preferably 6.8-7) was 100%. The “kill of non-target fish or other animals” value in the data set on fish or other animals is on record as “no fish or other animals were determined to be killed”. Further, the “kill of Asiatic clams” value is 100% with Asiatic clams (in less than one month, open water, pH between 6.0 and 6.5); “about 100%” in the data set on Asiatic clams (setting [1]). Besides, the kill of bryozoa entry in the data set with bryozoa (in 48 hours, open water, pH between 6.0 and 6.5) was “about 100%”. Further, in the data set with bryozoa (setting [1]), the kill of bryozoan entry was “about 100%”. Also, the “time to removal of algae” value with algae turned out to be 15 days. Also, the “effect on algae, bacteria, zebra mussel, Asian clam, apple snail, American crab, crayfish, Bryozoans” value in the data set with aquatic pests (in vivo) is reported as “reduce”. The “kill rates in the aquatic pests” value with aquatic pests (open and contained water) is recorded as 100%. For the same molecule, the “effectiveness in controlling aquatic pests versus sulfuric acid” value in the data set with aquatic pests (pH reduced to 7.1 with sulfurous acid versus pH 3.0 with sulfuric acid) is recorded as “more effective”. Also, in the data set with aquatic pests (preliminary testing, applied to water having aquatic pest), the aquatic pest count result was “reduces the aquatic pest count”. In addition, in the data set with anatoxin-a, the “time until free of anatoxin-a” value is listed as no more than 2 weeks.
